The results in this text go back to patent US6613536B1, “Synthetic peptides and pharmaceutical compositions comprising them for the treatment of systemic lupus erythematosus” (Yeda Research and Development Co. Ltd., priority 1995, dated 2003).

Entries after “also recorded” stand apart in the source; their conditions may differ.

Experiment [1] relates to BALB/c mice. Put plainly: Neonatal tolerization of BALB/c mice, then autoantibody titers after immunization. The class given is in vivo, mouse. As to conditions: BALB/c neonates, 100 μg i.p. twice; immunized 6-7 weeks later with peptide Ia or mAb 5G12. As to the method:
In order to either prevent induction of experimental SLE or to cure mice afflicted with the disease, the following procedures were used: (i) Newborn mice were tolerized with a peptide of the invention (100 μg of the peptide in PBS, intraperitoneally at 24 and 72 hours after birth). Six weeks later, the mice were immunized with the pathogenic autoantibody, e.g. 5G12 (16/6 Id+) and examined for disease manifestations; (ii) A first group of adult mice was injected with various concentrations of the peptides before disease induction with the pathogenic autoantibody or pathogenic T cell line; another group was injected with the peptides to be tested for their therapeutic effect six weeks following immunization at the peak of the serological response; and a further group was treated at 4-6 months post-immunization after the establishment of the overt SLE disease. The number of injections with the peptides was determined based on their effect on the disease induction and progression. The effect of the peptide treatment on T cell proliferation, on the autoantibody production and on the disease manifestations was then evaluated.
In order to further elucidate the role of the peptides in SLE, peptide Ia was utilized for the induction of tolerance in BALB/c mice. Newborn mice were injected twice (at day 1 and 3) with either peptide Ia or a control peptide. […]

In experiment [2] the test system is antibodies in sera of SLE patients and healthy controls. Description: Antibodies in human sera binding coated peptides or mAb 5G12 (ELISA). The conditions noted are these: 32 SLE patients in comparison to healthy controls; plates coated 10 μg/ml. As for the experimental part:
Human SLE patients (32 patients) were bled and their sera were tested by ELISA for their ability to bind the peptides Ia, IIa and IIIa, a control peptide p195-212 (a myasthogenic peptide described in PCT publication No. WO 94/00148) or mAb 5G12.
Detection of the antibodies was conducted on plates that were coated with 10 μg/ml of peptides Ia, IIa, IIIa or p195-212 or mAb 5G12, in PBS for 2 hr, washed and blocked with 1% ovalbumin in PBS for an additional 2 hr. ELISA was continued as described after blockage in Example 2 above, using goat anti-human IgG polyclonal antibody conjugated to peroxidase.

Experiment [3] deals with lymph node cells (LNC) of BALB/c and SJL mice. Description: In vivo inhibition of LNC proliferation to human mAb 16/6 Id. The conditions noted are these: 200 μg/mouse i.v., vs not treated or p307. As to the method: BALB/c (FIG. 7a) and SJL (FIG. 7b) mice were immunized with human mAb 16/6 Id (1 μg/mouse in CFA i.d. in the hind footpads) and were injected (200 μg/mouse i.v. in PBS) with either peptide Ia or IIIa, respectively. Proliferation responses to mAb 16/6 Id were measured in LNC taken from immunized but not-treated mice (filled squares), from mice treated concomitantly with immunization with the control peptide p307 (half filled squares) or from mice treated with the appropriate CDR-based peptide Ia or IIIa (open squares). Proliferation responses were also shown to the immunodominant CDR-based peptide Ia or IIIa of LNC taken from 16/6 Id immunized non-treated mice (filled circles) or from mice treated with the appropriate CDR-based peptide Ia or IIIa (open circles). Results are expressed as mean CPM of triplicates.

For experiment [4], the system named is T cell line specific to peptide IIIa of SJL origin. Description: Proliferation and cytokine secretion of peptide IIIa-specific T cell line. It is filed as cell-based, mouse. As to the method: A further test which can be conducted is to test for the ability of the analogs to inhibit cytokine secretion by the T cell line or by T lymphocytes oh lymph nodes of mice that are high responders to SLE-inducing autoantibodies. The cytokines are detected as follows: IL-1 activity is assessed either by ELISA using a pair of capture and detecting antibodies (as described below for IL-4, IL-6, IL-10) or using the LBRM-33(1A5) assay (Conlon, 1983) in which 1A5 cells are stimulated in the presence of phytohemagglutinin (PHA), with either supernatants or recombinant IL-1 at various concentrations to secrete IL-2. […] Stimulation of the CTLL line by IL-2 is measured after 24 hr by incorporation of ^3[H]-thymidine. IL-2 is directly detected using the IL-2 dependent CTLL line or by ELISA. Levels of IL-4, IL-6, IL-10, INFγ and TNFα in the supernatants are determined by ELISA using antibodies to the various cytokines (Phamingen, San Diego, Calif., USA) according to the manufacturer's instructions.
T cell lines and clones specific to the 16/6 Id were established from immunized lymph node cells as previously described (Axelrod and Mozes, 1986). […] At the end of 48 hours incubation, 0.5 μCi of ^3H-thymidine were added for an additional 18 hours, after which cells were harvested and radioactivity was counted. […]

As to “TGYYMQWVKQSPEKSLEWIG [peptide Ia]”, in experiment [1], the “anti-DNA and anti-NE autoantibody titers after neonatal tolerization” value was “did not produce significant titers of antibodies to either DNA or nuclear extract antigens; also recorded: produced lower levels of anti-DNA and anti-NE antibodies”. In addition, in experiment [2], the “levels of serum antibodies that bind the coated peptide or mAb” value is “significantly higher levels of antibodies”. Further, in experiment [3] (BALB/c mice immunized with human mAb 16/6 Id), the “proliferative responses to mAb 16/6 Id of LNC” value is “inhibited”.
As for “YYYCARFLWEPYAMDYWGQGS (YYCARFLWEPYAMDYWGQGS) [peptide IIIa, based on the CDR3 region of the VH chain of mAb 5G12]”, the “levels of serum antibodies that bind the coated peptide or mAb” value in experiment [2] was “significantly higher levels of antibodies”. In addition, in experiment [4], the “cytokine secretion of T cell line upon stimulation” value is “secreted the Thl-type cytokines, namely, IL-2, IFNγ and TNFα”. Besides, in experiment [3] (SJL mice immunized with human mAb 16/6 Id), the “proliferative responses to mAb 16/6 Id of LNC” value was “inhibited”.
